Data on one molecule can be found in patent publication US5512466A, “Control of fruit ripening and senescence in plants” (Monsanto Company, priority 1991, dated 1996).

Assay [1] concerns ACC deaminase from bacterial strain 388 (B27444, St. Charles soil, ACC enriched). The settings on record: read-out: Km (ACC), crude desalted extract, Tris pH 8.0, 30° C., double reciprocal plot. As for the experimental part: (§1) The Km for the ACC deaminases isolated from the various soil sources was determined using crude, desalted extracts. Individual strains of bacteria were grown in liquid media containing 4 g KH2 PO4, 6.5 g K2 HPO4, 1 g MgSO4.7H2 O, 2 g glucose, 1 mg FeSO4, 1 mg MnCl2, 1 mg ZnSO4, 1 mg CuSO4, 1 mg CaCl2, and 300 mg ACC, all in 1 liter H2 O. Cells were grown for 2 to 3 days at 30° C. Cells were pelleted by centrifugation and resuspended in extraction buffer containing 0.1M phosphate, pH 7.5, 1 mM EDTA, 0.1% β-mercaptoethanol. The cells were broken with a French Press, 1000 psi, and the cell debris was pelleted by centrifugation. […] Glycerol was added to the extract (20% v/v) and enzyme solutions were stored at -20° C. ACC deaminase enzyme assays were conducted as described in the Examples to follow. The assay mixture contained 100 μl of 0.2M Tris buffer, pH 8.0, 30 μl of 500 mM ACC solution, and enzyme solution to make a final volume of 200 μl. Reactions were run for 10 minutes at 30° C. The reaction was stopped with 1.8 ml of 2N HCl. After adding 300 μl 0.1% 2,4-dinitrophenylhydrazine, the mixture was incubated for 15 minutes at 30° C. The solution was then made basic by adding 2 ml of 2N NaOH. The optical density of the resulting brownish-red solution was determined at 540 nm with a spectrophotometer.
(§2) The kinetic value, Km, for ACC deaminase was determined against ACC as the enzyme substrate for each of the ACC deaminases isolated. […] An estimated Km was determined for each extracted enzyme with ACC at sub-saturating concentrations. […] Actual Km values were then determined for each extract using ACC concentrations between 0.2× and 2× of the estimated Km, or ACC concentrations between 1 and 10 mM ACC. Km values were calculated from double reciprocal plots, plotting the reciprocal of the substrate concentration on the x-axis and the reciprocal of the velocity (α-ketobutyrate formed) on the y-axis.

Assay [2] relates to ACC deaminase from bacterial strain PR-1 (B27813, Puerto Rico soil). The following applies: read-out: Km (ACC), crude desalted extract, Tris pH 8.0, 30° C., double reciprocal plot. As for the experimental part:
as §1, §2

The subject of assay [3] is ACC deaminase from bacterial strain 393 (B27449, St. Charles soil). The following applies: read-out: Km (ACC), crude desalted extract, Tris pH 8.0, 30° C., double reciprocal plot. As for the experimental part:
as §1, §2

Assay [4] has as its system ACC deaminase from bacterial strain 391 (B27447, Malaysia soil). The settings on record: read-out: Km (ACC), crude desalted extract, Tris pH 8.0, 30° C., double reciprocal plot. As for the experimental part: as §1, §2
In assay [5] the test system is ACC deaminase from bacterial strain 392 (B27448, Peru soil). The following applies: read-out: Km (ACC), crude desalted extract, Tris pH 8.0, 30° C., double reciprocal plot. The procedure:
as §1, §2

In assay [6] the test system is ACC deaminase from bacterial strain 401 (B27457, St. Charles soil, ACC enriched). The settings on record: read-out: Km (ACC), crude desalted extract, Tris pH 8.0, 30° C., double reciprocal plot. The procedure:
as §1, §2

Assay [7] has as its system ACC deaminase from Pseudomonas isolate 3F2 (gene SEQ ID NO:15, amino acid SEQ ID NO:16). The following applies: read-out: Km (ACC); strain 3F2; crude desalted extract, Tris pH 8.0, 30° C., double reciprocal plot. The procedure:
as §1, §2

The subject of assay [8] is ACC deaminase from bacterial strain T44 (B27817, Tanzania soil). The settings on record: read-out: Km (ACC), crude desalted extract, Tris pH 8.0, 30° C., double reciprocal plot. As for the experimental part:
as §1, §2

For orientation: Km means the substrate concentration at which the rate is half of its maximum. With `NC1(C(=O)O)CC1` [ACC, 1-aminocyclopropane-1-carboxylic acid], the Michaelis-Menten constant (Km) in assay [1] came to 8.6 mM; in assay [2], 4.1 mM; in assay [3], 5.9 mM; in assay [4], 17.4 mM; in assay [5], 7.1 mM; in assay [6], 7.8 mM. In addition, the Km in assay [7] was 5.8 mM; in assay [8], 11.8 mM.
